Measured values from ChEMBL document CHEMBL3421544, “Design, synthesis and biological evaluation of pyridazino[3,4,5-de]quinazolin-3(2H)-one as a new class of PARP-1 inhibitors” (Bioorg Med Chem Lett, 2015).

What was measured:
PC-12 [1] = assay: Neuroprotective activity against H2O2 -mediated injury in rat PC12 cells assessed as cell survival at 0.1 uM relative to control; format: functional; conditions: read-out: Survival
PC-12 [2] = assay: Neuroprotective activity against H2O2 -mediated injury in rat PC12 cells assessed as cell survival at 1 uM relative to control; format: functional; conditions: read-out: Survival
PC-12 [3] = assay: Neuroprotective activity against H2O2 -mediated injury in rat PC12 cells assessed as cell survival at 0.01 uM relative to control; format: functional; conditions: read-out: Survival
[4] = target: Poly [ADP-ribose] polymerase 1 (Homo sapiens) (UniProt P09874); assay: Inhibition of PARP1 (unknown origin) at 2.8 uM
Poly [ADP-ribose] polymerase 1 (Homo sapiens), sequence (P09874 whole entry): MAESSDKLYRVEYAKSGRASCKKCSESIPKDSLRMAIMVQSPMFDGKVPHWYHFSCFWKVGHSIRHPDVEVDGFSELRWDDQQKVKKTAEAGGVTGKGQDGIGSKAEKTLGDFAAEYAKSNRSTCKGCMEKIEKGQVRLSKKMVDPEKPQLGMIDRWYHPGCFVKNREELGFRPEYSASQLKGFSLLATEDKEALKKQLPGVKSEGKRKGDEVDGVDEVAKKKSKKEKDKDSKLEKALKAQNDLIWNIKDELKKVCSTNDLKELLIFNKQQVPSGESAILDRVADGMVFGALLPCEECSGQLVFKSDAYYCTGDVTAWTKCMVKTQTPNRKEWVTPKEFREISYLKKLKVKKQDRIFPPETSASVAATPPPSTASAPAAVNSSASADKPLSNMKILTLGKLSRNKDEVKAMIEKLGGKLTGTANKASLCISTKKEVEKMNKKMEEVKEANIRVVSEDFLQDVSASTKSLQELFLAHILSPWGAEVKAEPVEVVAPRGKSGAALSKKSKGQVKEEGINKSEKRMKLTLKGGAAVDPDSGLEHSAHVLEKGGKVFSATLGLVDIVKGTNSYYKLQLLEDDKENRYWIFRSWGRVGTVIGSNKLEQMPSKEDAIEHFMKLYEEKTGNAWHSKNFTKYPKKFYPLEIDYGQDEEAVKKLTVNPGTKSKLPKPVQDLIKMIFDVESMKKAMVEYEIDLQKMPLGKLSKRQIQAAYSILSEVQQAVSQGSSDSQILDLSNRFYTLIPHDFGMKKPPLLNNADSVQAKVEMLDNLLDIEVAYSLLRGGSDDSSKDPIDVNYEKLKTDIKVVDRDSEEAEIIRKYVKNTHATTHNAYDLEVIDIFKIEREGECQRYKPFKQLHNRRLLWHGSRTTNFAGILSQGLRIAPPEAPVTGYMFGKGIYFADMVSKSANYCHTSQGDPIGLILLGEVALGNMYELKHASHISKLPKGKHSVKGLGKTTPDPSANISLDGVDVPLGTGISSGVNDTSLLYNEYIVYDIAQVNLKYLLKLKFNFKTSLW

inhibition [4]	SMILES	viability at 0.1 µM (PC-12 [1])	viability at 1 µM (PC-12 [2])	viability at 0.01 µM (PC-12 [3])
	Cc1ccc(C2=Nc3cccc4c(=O)[nH]nc(c34)N2)cc1	97.2%	98%	70.9%
	COCCOC(=O)C1=C(C)NC(C)=C(C(=O)OC(C)C)C1c1cccc([N+](=O)[O-])c1 (stereo not drawn) [NIMODIPINE]		90.4%	
	O=c1[nH]nc2c3c(cccc13)N=C(c1ccccc1)N2	98.2%	88.5%	81.6%
59.3%	NC(=O)c1ccccc1			
